Source: patent US8940798B2, “Compounds useful for treating and/or preventing disease-associated bone loss” (Centre National de al Recherche Scientifique (CNRS), priority 2011, dated 2015)

Tested on: osteoclasts (OCs)
Test: OC survival assay (number of OCs after 24-hour incubation)
Format: cell-based
Conditions: number of OCs as % of DMSO control
Source text: FIGS. 5A-5H: Inhibition of bone resorption by an inhibitor of Rac1 activation by Dock5. (FIG. 5A) Principle of the yeast exchange assay used to identify inhibitors of Dock5 exchange activity. Wild type Rac1 is fused to LexA DNA binding domain (LexA) and its effector Kinectin (Kin) to GAL4 activation domain (GAD). Expression of Dock5-DHR2 activates Rac1, which binds to kinectin, leading to the expression of his3 and then yeast […] for histidine. Inhibitors of Dock5-DHR2 revert Rac1 activation. (FIG. 5B) Growth curves of yeasts expressing Rac1 and Kinectin with (open triangles) and without (dots) Dock5-DHR2, in medium complemented (plain lines) or not (dotted lines) with histidine. […] (FIG. 5F) Number of OCs (OC) after a 24-hour incubation with the indicated concentrations of C21, expressed as a % of DMSO control (0 μM C21). […]
Preparations were mounted in Mowiol 40-88 (Sigma) and imaged with Zeiss Axioimager Z2 microscope with Coolsnap HQ2 camera for fluorescence and Coolsnap color Cf camera using Zeiss 40× PLAN-NEOFLUAR 1.3 oil DIC or Zeiss 20× PLAN-APOCHROMAT 0.8 or Zeiss 10× EC PLAN-NEOFLUAR 0.3. […] OC circularity was measured using ImageJ. OCs were counted manually in 96-well plates stained to reveal DNA and TRAP activity, except in FIG. 5F where they were counted automatically using a Cellomics Arrayscan VTI (Thermo Scientific). […]

## O=S(=O)(Nc1cc(Cl)cc(Cl)c1)c1ccccc1 [C21, N-(3,5-dichlorophenyl)benzenesulfonamide]
  Concentrations provoking OC death: above 25 μM
